Results from patent US10113154B2, “Method for producing steviol glycoside” (SUNTORY HOLDINGS LIMITED, priority 2012, dated 2018).

Legend:
[1] = tested on: UGT85C2 and UGT91D-like 3; experiment: Simultaneous reaction of UGT85C2 and UGT91D-like 3 (LC-MS analysis); format: biochemical, stevia; details: FIG. 4 panel 3
UGT85C2 = molecular target: T1, UGT85C2 (Stevia rebaudiana, UniProt Q6VAB0, A65S/E71Q/K220T); experiment: Assay for enzyme activity of UGT85C2 (glucosylation with UDP-glucose, LC-MS analysis); format: biochemical; details: 0.1 mM substrate, 2 mM UDP-glucose, pH 7.0, 30° C., one hour; FIG. 4 panel 1
T1 construct: The ORF fragment of about 1.4 kb from UGT85C2 was excised using the restriction enzyme sites of NdeI and BglII; made in house; host or cells: Escherichia coli BL21 (DE3)
T1 sequence (Q6VAB0 whole entry A65S/E71Q/K220T, the tested form may be a part): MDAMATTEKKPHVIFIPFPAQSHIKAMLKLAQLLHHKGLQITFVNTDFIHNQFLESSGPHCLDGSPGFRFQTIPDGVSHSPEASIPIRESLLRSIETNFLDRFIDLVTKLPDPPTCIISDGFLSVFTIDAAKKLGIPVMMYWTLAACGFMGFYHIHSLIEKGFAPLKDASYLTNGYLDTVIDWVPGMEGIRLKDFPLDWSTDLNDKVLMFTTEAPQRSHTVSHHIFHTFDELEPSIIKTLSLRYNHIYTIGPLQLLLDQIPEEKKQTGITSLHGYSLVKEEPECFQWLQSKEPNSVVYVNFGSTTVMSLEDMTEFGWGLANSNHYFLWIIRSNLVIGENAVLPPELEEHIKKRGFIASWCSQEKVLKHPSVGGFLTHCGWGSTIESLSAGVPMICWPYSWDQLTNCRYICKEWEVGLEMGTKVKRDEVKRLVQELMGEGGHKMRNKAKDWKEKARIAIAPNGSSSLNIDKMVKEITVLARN
Description: Standard conditions for the enzyme reaction were as follows. A reaction solution (2 mM UDP-glucose, 0.1 mM glycosyl acceptor substrate (steviol), 100 mM potassium phosphate buffer (pH 7.0) and 25 μl of purified UGT85C2 enzyme solution) was prepared in distilled water to become 50 μl, and reacted at 30° C. for an hour. The LC-MS analysis was performed for 5 μl of the enzyme reaction solution under the following conditions.
Column: Waters Sunfire C18 3.5 um 2.0 mm I.D.×20 mm
Moving phase: A: MilliQ Water (+0.05% formic acid), B: MeCN
Gradient: linear gradient of B from 15% to 55% (20 mins.)

[2] = molecular target: T2, UGT85C2 and UGT91D-like 3 (Stevia rebaudiana, UniProt Q6VAB0, A65S/E71Q/K220T); experiment: Simultaneous reaction of UGT85C2 and UGT91D-like 3 (LC-MS analysis); format: biochemical; details: concluded from simultaneous reaction, FIG. 4 panel 3
T2 construct: The ORF fragment of about 1.4 kb from UGT85C2 was excised using the restriction enzyme sites of NdeI and BglII; made in house; host or cells: Escherichia coli BL21 (DE3), stated for UGT85C2 only
T2 sequence (Q6VAB0 whole entry A65S/E71Q/K220T, the tested form may be a part): as above

Structure (SMILES)	products formed by simultaneous reaction of UGT85C2 and UGT91D-like 3 [1]	glucosylation of the carboxyl at C19-position by UGT85C2, product additionally formed (UGT85C2)	glucosylation of the hydroxyl at C-13 position by UGT85C2, product formed (UGT85C2)	glucosylation of the carboxyl at C19-position by UGT85C2 protein [2]
C=C1C[C@@]23CC[C@H]4[C@@](C)(CCC[C@@]4(C)C(=O)O)[C@@H]2CC[C@]1(O)C3 [steviol]	steviolbioside (FIG. 4: panel 3: peak C) and stevioside (FIG. 4: panel 3: peak E) were formed	rubusoside (FIG. 4: panel 1: peak D) with the carboxyl at C19-position being glucosylated was additionally formed	glucosylated (FIG. 4, panel 1: peak A) to form steviolmonoside	
C=C1C[C@@]23CC[C@H]4[C@@](C)(CCC[C@@]4(C)C(=O)O)[C@@H]2CC[C@]1(O[C@@H]1O[C@H](CO)[C@@H](O)[C@H](O)[C@H]1O[C@@H]1O[C@H](CO)[C@@H](O)[C@H](O)[C@H]1O)C3 [steviolbioside]				glucosylates the carboxyl at C19-position of steviolbioside
